Reference: patent US20200339509A1, “Non-Coordinating Anion Type Indolinium Activators in Aliphatic and Alicyclic Hydrocarbon Solvents” (ExxonMobil Chemical Patents Inc., priority 2019, published 2020)
Values joined by “and” are separate entries in the source; they are usually repeats but may differ in a detail not shown here. Identical values can stand only once.

How the values were obtained:
[1] = Propylene homopolymerization in parallel pressure reactor with the indicated activator; details: propylene polymerization; 30 nmol catalyst MCN-1, 1.1 equivalents activator, 100° C., 150 psi propylene
Protocol: Solutions of the metal complexes and activators were prepared in a drybox using toluene or methylcyclohexane. Concentrations were typically 0.2 mmol/L. Tri-n-octylaluminum (TNOAL, neat, AkzoNobel) was used as a scavenger as indicated. Concentration of the TNOAL solution in toluene ranged from 0.5 to 2.0 mmol/L.
Polymerizations were carried out in a parallel pressure reactor according to common laboratory techniques, as generally described in U.S. Pat. Nos. 6,306,658; 6,455,316; 6,489,168; WO 00/09255; consistent with the procedures described by Murphy, V. et al. (2003) “A Fully Integrated High-Throughput Screening Methodology for the Discovery of New Polyolefin Catalysts: Discovery of a New Class of High Temperature Single-Site Group (IV) Copolymerization Catalysts,” J. Am. Chem. Soc., v. 125, pp. 4306-4317, each of which is fully incorporated herein by reference. The experiments were conducted in an inert atmosphere (N2) drybox using autoclaves equipped with an external heater for temperature control, glass inserts (internal volume of reactor=23.5 mL for C2 and C2/C8; 22.5 mL for C3 runs), septum inlets, regulated supply of nitrogen, ethylene and propylene, and equipped with disposable PEEK mechanical stirrers (800 RPM). The autoclaves were prepared by purging with dry nitrogen at 110° C. or 115° C. for 5 hours and then at 25° C. for 5 hours. Although the specific quantities, temperatures, solvents, reactants, reactant ratios, pressures, and other variables are frequently changed from one polymerization run to the next, the following describes a typical polymerization performed in a parallel pressure reactor. […]
The catalyst and activator solutions for the comparative data were all prepared in toluene. […] The resultant polymer was analyzed by Rapid GPC (see below) to determine the molecular weight, by FT-IR (see below) to determine percent octene incorporation, and by DSC (see below) to determine melting point (Tm).
Equivalence is determined based on the mole equivalents relative to the moles of the transition metal in the catalyst complex. […]

[2] = Solubility study of the activators (saturated solution in aliphatic/alicyclic solvent); assay type: physicochemical; details: 25° C., concentration of saturated solution; for Solubility limit in MeCy: MeCy (methylcyclohexane)
Protocol: The solubility was determined using a saturated solution of the activator prepared by slowly adding the solvent to a pre-weighed amount of the activator. The final volume was determined as the minimum amount of solvent required to convert the heterogenous mixture into a homogeneous solution. The concentration of the saturated solution is presented in millimoles of activator per liter of solution (mM). Alternatively, a mixture of the activator was prepared by adding the solvent to an excess amount of activator. The resulting slurry was separated from the undissolved solids by decanting the mixture into a tared vial. Solvent was then added dropwise until the mixture became a homogeneous solution. The mass of the final solution was measured and then the solvent was evaporated to dryness to obtain the mass of the activator. The concentration of the saturated solution is presented in millimoles of activator per liter of solution (mM).

Molecule	activity [1]	Solubility limit in MeCy [2] [µM]	Solubility limit in i-hexane [2] [µM]
1-methylindolinium tetrakis(heptafluoronaphthalen-2-yl)borate [MIH-BF28]	64 kg/mmol/h and 39 kg/mmol/h and 46 kg/mmol/h		
C[NH+](C)c1ccccc1.Fc1c(F)c(F)c([B-](c2c(F)c(F)c(F)c(F)c2F)(c2c(F)c(F)c(F)c(F)c2F)c2c(F)c(F)c(F)c(F)c2F)c(F)c1F [DMAH-BF20, N,N-Dimethylanilinium tetrakis(pentafluorophenyl) borate, reference compound]		<100	<100
CCCCCCCCCCC1C[NH+](C)c2ccccc21.Fc1c(F)c(F)c2c(F)c([B-](c3c(F)c(F)c4c(F)c(F)c(F)c(F)c4c3F)(c3c(F)c(F)c4c(F)c(F)c(F)c(F)c4c3F)c3c(F)c(F)c4c(F)c(F)c(F)c(F)c4c3F)c(F)c(F)c2c1F [MDIH-BF28, 3-decyl-1-methylindolin-1-ium BF-28]		10100	1000
C[NH+]1CCc2ccccc21.Fc1c(F)c(F)c([B-](c2c(F)c(F)c(F)c(F)c2F)(c2c(F)c(F)c(F)c(F)c2F)c2c(F)c(F)c(F)c(F)c2F)c(F)c1F [MIH-BF20, 1-methylindolinium tetrakis(pentafluorophenyl) borate]	7 kg/mmol/h	5300	<100
N,N-dimethyl anilinium tetrakis(heptafluoronaphthalen-2-yl)borate [DMAH-BF28, reference compound]	126 kg/mmol/h and 182 kg/mmol/h and 196 kg/mmol/h and 164 kg/mmol/h		
